The source of these data is patent US12577232B2, “N-heterocycle substituted tryptamine derivatives and methods of using” (ENVERIC B[…] INC., priority 2024, dated 2026).

In test [1] the target is T1, 5-HT1A receptor (Homo sapiens, UniProt P08908).
T1 construct: purchased Perkin Elmer 6110501400UA
T1 sequence (P08908 1-422): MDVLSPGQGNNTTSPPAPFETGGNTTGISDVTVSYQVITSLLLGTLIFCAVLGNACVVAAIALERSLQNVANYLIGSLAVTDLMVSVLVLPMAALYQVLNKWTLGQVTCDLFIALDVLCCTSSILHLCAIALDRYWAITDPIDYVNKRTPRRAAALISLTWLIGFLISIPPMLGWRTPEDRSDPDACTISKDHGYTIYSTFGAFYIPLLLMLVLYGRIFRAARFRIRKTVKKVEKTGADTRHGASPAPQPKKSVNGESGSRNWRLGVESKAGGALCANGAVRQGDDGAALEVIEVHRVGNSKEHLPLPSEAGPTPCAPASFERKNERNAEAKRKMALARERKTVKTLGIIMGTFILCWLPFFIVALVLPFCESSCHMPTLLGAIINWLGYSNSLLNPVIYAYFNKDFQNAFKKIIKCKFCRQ
Description: 5-HT1A receptor radioligand competition assay (SPA, [3H]8-hydroxy-DPAT). It counts as binding. Conditions: 0.5 nM hot 8-hydroxy-DPAT; membranes containing 5-HT1A. As to the method: 5-HT1A receptor. […] After incubation, the samples were read on a MicroBeta 2 Microplate Counter (perkinelmer.com). Non-specific binding was carried out in the presence of 100 μM of metergoline (M3668-500MG, Sigma-Aldrich). Equilibrium binding constant for 8-hydroxy-DPAT (KD) was determined from a saturation binding curve using one-site saturation binding analysis from GraphPad PRISM software (Version 9.2.0). Test compound was dissolved to 100 mM in dimethylsulfoxide (DMSO), and dilutions were carried out in assay buffer. […] Ki values were calculated from the competition displacement data using the competitive binding analysis from GraphPad PRISM software. […] Conversely, blank preparations lacking any drug (simply termed ‘DMSO’ samples) were used as negative controls, in addition to those containing tryptophan which is not known to bind the 5-HT1A receptor.

Test [2] addresses T2, 5-HT2A receptor (Homo sapiens, UniProt P28223).
T2 construct: purchased PerkinElmer ES-313-M400UA
Kind of test: Functional cell-based 5-HT2A assay, agonism mode (CHO-K1/5-HT2A, Fluo-8 calcium flux). As to conditions: CHO-K1/5-HT2A cells.
Description: Herein, functional, cell-based assays were conducted to determine (1) agonist potency and efficacy of drugs at the 5-HT2A receptor (agonist mode), and (2) antagonist potency at the 5-HT2A receptor (antagonist mode).
All cells were grown and maintained as a monolayer in Ham's F12 nutrient mix supplemented with 10% fetal bovine serum (FBS) and 400 μg/mL geneticin (G418) all from ThermoFisher Scientific and used according to the manufacturer's instructions. Cells were cultured and incubated at 37° C. in a humidified oxygen atmosphere with 5% CO2. To evaluate the activation of 5-HT2A signal transduction, cells were first seeded in tissue culture-treated, black-walled, clear-bottom 96-well plates (Thermo Scientific) at a density of 40,000 cells/well in 100 pl Ham's F12 nutrient mix supplemented with 2% FBS. Cells were cultured for 24 h in a humidified incubator at 37° C. and 5% CO2. Cells were then loaded with Fluo-8 calcium indicator dye for 1 h at 37° C. and an additional 30 min at room temperature as per the manufacturer's protocol. […] Kinetic increases in intracellular calcium levels were measured immediately after addition of test compounds every 6.4 s for a total of 3 min using the FlexStation 3 multimode microplate reader and SoftMax Pro 7.1 analysis software (Molecular Devices, moleculardevices.com). […] EC50 values were calculated from the normalized data from GraphPad PRISM software.

Test [3] relates to stressed C57BL/6-Elite mice. Description: Mouse sucrose preference (SP) assay to assess antidepressant potential. It counts as in vivo. Conditions: i.p., psilocin 3 mg/kg, compound (XV) 10 mg/kg; one day after administration. As to the method:
Reduced intake of pleasurable substances, e.g., of sucrose water, is a validated behavioral measure of anhedonic/depressive-like state in rodents (Moreau et al., 1992, Eur. Neurpsychopharmocol. 2:43-49; Liu et al., 2018, Nature Protocols 13:1686-1698). […] In the SP assay, cohorts of mice are pre-stressed, leading to a depressed state. The ability of drugs to rescue this state are evaluated.
All animal protocols were approved by the University of Calgary Animal Care and Use Committee. C57BL/6-Elite mixed sex mice were obtained from Charles River Laboratories (Toronto, Canada) at 8-9 weeks old. Mice were maintained on a 12:12 h light/dark schedule (lights on at 07:00 hours) with ad libitum access to food and water and group-housed until 2 days prior to the start of the mild chronic stress paradigm, then mice were single-housed. […]
Mice were introduced to 1% sucrose solution in their drinking water for 24 hrs for 2 days prior to initial sucrose preference testing to reduce impact of novelty. […] The consumption in water, sucrose solution, and total intake of liquids was measured by weighing each bottle before and after the 24-hr experiment. The preference for sucrose was calculated as a percentage of the consumed sucrose solution from the total intake of both water and sucrose solutions. […]

For test [4], the system named is stressed C57BL/6-Elite mice. Description: Mouse marble burying (MB) assay to assess anxiolytic potential. Conditions: i.p., psilocin 3 mg/kg, compound (XV) 10 mg/kg; vs Vehicle+Stress. Format: in vivo. As to the method:
Marble burying behavior is used to measure the level of anxiety in a rodent when it encounters unfamiliar objects (Deacon, 2006, Nature Protocols 1:122-124). This assay is routinely applied to the study of chronically stressed mice, where drug candidates are evaluated for an ability to diminish stress-induced, anxiety-like behaviours (e.g., Wang et al., ACS Chem. Neurosci. 14:977-987). Positive results in this assay may be interpreted as an indication of therapeutic (anxiolytic) potential in the treatment of various psychiatric disorders. Herein, we applied the marble burying model to investigate whether selected drugs could alleviate anxiety behaviour in stressed mice.
All animal protocols were approved by the University of Calgary Animal Care and Use Committee. C57BL/6-Elite mixed sex mice were obtained from Charles River Laboratories (Toronto, Canada) at 8-9 weeks old. […]
On the testing days, 10 glass marbles (approx. 15 mm in diameter) were evenly spaced on 5 cm of wood-chip bedding (lightly tamped down to make a flat and even surface). […] The number of marbles buried to ⅔rds their depth was measured. Fully buried marbles were counted as 1 and partially (at least ⅔rds) buried marbles were counted as 0.5. […]

T2 sequence (P28223 whole entry): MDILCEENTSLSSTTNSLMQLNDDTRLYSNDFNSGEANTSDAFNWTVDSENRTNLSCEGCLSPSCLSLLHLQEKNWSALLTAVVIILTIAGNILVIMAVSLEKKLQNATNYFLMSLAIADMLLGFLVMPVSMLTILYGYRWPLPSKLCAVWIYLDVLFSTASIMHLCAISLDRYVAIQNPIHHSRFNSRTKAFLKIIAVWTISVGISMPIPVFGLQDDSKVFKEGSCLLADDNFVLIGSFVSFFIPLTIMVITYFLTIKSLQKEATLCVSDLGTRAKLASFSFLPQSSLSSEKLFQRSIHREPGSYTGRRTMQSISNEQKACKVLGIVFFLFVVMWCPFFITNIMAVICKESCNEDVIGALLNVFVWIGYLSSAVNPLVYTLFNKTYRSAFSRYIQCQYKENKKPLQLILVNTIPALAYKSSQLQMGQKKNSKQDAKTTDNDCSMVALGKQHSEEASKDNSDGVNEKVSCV

Turning to `CN(C)CCc1c[nH]c2cc(N3CCCC3)cc(F)c12` [Compound (XVIII)], in test [1], the Ki worked out at 18.1 µM.

With `CN(C)CCc1c[nH]c2cc(F)cc(N3CCOCC3)c12` [Compound (XV)], affinity in test [1] was put at a Ki of 1.83 µM. Moreover, the “engagement at the 5-HT2A receptor, agonist mode” value in test [2] is “agonism”. Besides, the “sucrose preference behaviour in stressed mice vs no drug control” value in test [3] is reported as “significant preference for sucrose”. Further, in test [4], the “anxiety-linked (marble burying) behavior in stressed mice” value is listed as “alleviated”.

For the molecule `CN(C)CCc1c[nH]c2cc(N3CCC3)ccc12` [Compound (XII)], in test [1], the Ki worked out at 20.8 µM.
